Reference: ChEMBL document CHEMBL5154881, “Discovery of First-in-Class TAK1-MKK3 Protein-Protein Interaction (PPI) Inhibitor (R)-STU104 for the Treatment of Ulcerative Colitis through Modulating TNF-α Production” (J Med Chem, 2022)
Activity calls are given as the source filed them. No cut-off for these calls is given here.

What was measured:
[1] = system: P-gp (human); test: Apparent permeability in dog MDCK-MDR1 cells transfected with human P-gp; assay type: ADME, cell-based, Canis lupus familiaris
[2] = Toxicity in C57 mouse assessed as spleen damage at 50 to 500 mg/kg, po administered daily for 14 days; assay type: organism-based; conditions: in vivo, 336 h, dose 50-500 mg/kg, time 14 day
[3] = system: Mus musculus; test: Antiinflammatory activity against IL-10-/- C57BL/6 mouse model of ulcerative colitis assessed as inhibition ratio of IL-6 mRNA expression in colon tissue at 10 mg/kg, IG via gavage and measured after 8 weeks by RT-qPCR analysis relative to control; assay type: functional; design: scale not given: the % may be the effect or the level left
[4] = Bioavailability in 12 hr starved C57 mouse […] measured for 0.083 to 24 hrs post-dose by LC-MS-MS analysis; assay type: ADME, organism-based; conditions: in vivo, time 0.083-24 hrs
[5] = system: RAW264.7; test: Inhibition of MKK3-p38-elF4E signaling pathway in mouse RAW264.7 cells assessed as reduction in LPS-induced MK2 phosphorylation treated for 1.5 hrs followed by LPS treatment for 1 hr by Western blot analysis; assay type: cell-based; conditions: dose 3.125-12.5 µmol/L, time 2.5 hrs, DDE = dose-dependent effect
[6] = system: Mus musculus; test: Inhibition of MKK3-p38 MAPK-elF4E signaling pathway in C57BL/6 mouse model of acute ulcerative colitis assessed as decrease in DSS-induced MKK3 phosphorylation in colon tissue administered intragastrically via gavage measured after 7 days by Western blot analysis; conditions: dose 1-50 mg/kg, time 7.0 day, DDE = dose-dependent effect
[7] = system: Mus musculus; test: Anti-ulcerative colitis activity in IL-10-/- C57BL/6 mouse model of ulcerative colitis assessed as colon length recovery ratio at 1 mg/kg, IG via gavage for 8 weeks relative to control; assay type: functional
[8] = system: Mus musculus; test: Inhibition of MKK3-p38 MAPK-elF4E signaling pathway in C57BL/6 mouse model of acute ulcerative colitis assessed as decrease in DSS-induced Mnk1 phosphorylation in colon tissue administered intragastrically via gavage measured after 7 days by Western blot analysis; conditions: dose 1-50 mg/kg, time 7.0 day, DDE = dose-dependent effect
[9] = system: Mus musculus; test: Anti-ulcerative colitis activity in IL-10-/- C57BL/6 mouse ulcerative colitis model assessed as animal survival at 3 to 10 mg/kg, IG via gavage for 8 weeks; assay type: functional, organism-based; conditions: dose 3-10 mg/kg
[10] = system: Mus musculus; test: Antiinflammatory activity against DSS-induced C57BL/6 mouse model of acute ulcerative colitis assessed as inhibition ratio of IL-1beta mRNA expression in colon tissue at 3 mg/kg, IG via gavage measured after 7 days by RT-qPCR analysis relative to control; assay type: functional; design: scale not given: the % may be the effect or the level left; conditions: time 7 day
[11] = system: Mus musculus; test: Anti-ulcerative colitis activity against DSS-induced ulcerative colitis C57BL/6 mouse model assessed as reduction in DAI score at 1 mg/kg, IG via gavage administered for 7 days and measured everyday (reference value: 4.0); assay type: functional; conditions: time 7 day
[12] = biological target: T1, Dual specificity mitogen-activated protein kinase kinase 3 (Mus musculus) (UniProt O09110); test: Binding affinity to MKK3 in mouse RAW264.7 cells assessed as increase in thermal stability at 47 degC incubated for 24 hrs by CETSA; assay type: cell-based; conditions: dose 1-64 µM, DDE = dose-dependent effect
T1 sequence (whole entry): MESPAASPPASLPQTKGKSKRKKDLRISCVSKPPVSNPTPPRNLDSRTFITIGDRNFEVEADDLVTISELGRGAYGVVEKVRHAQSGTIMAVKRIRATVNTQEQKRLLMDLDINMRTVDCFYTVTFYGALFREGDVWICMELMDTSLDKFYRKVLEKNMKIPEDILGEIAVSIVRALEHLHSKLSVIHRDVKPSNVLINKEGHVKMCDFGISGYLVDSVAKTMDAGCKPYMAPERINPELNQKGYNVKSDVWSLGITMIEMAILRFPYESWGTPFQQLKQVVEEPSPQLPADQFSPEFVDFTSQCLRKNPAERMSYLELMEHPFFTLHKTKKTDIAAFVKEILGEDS

[13] = system: Mus musculus; test: Antiinflammatory activity against DSS-induced C57BL/6 mouse model of acute ulcerative colitis assessed as inhibition ratio of IL-6 protein expression at 1 mg/kg, IG via gavage measured after 7 days by ELISA relative to control; assay type: functional; design: scale not given: the % may be the effect or the level left; conditions: time 7 day
[14] = system: Mus musculus; test: Antiinflammatory activity against IL-10-/- C57BL/6 mouse model of ulcerative colitis assessed as inhibition ratio of TNF-alpha mRNA expression in colon tissue at 3 mg/kg, IG via gavage and measured after 8 weeks by RT-qPCR analysis relative to control; assay type: functional; design: scale not given: the % may be the effect or the level left
[15] = system: Mus musculus; test: Anti-ulcerative colitis activity in IL-10-/- C57BL/6 mouse model of ulcerative colitis assessed as colon length recovery ratio at 3 mg/kg, IG via gavage for 8 weeks relative to control; assay type: functional
[16] = system: Mus musculus; test: Antiinflammatory activity against DSS-induced C57BL/6 mouse model of acute ulcerative colitis assessed as inhibition ratio of IL-1beta protein expression at 3 mg/kg, IG via gavage measured after 7 days by ELISA relative to control; assay type: functional; design: scale not given: the % may be the effect or the level left; conditions: time 7 day
[17] = system: RAW264.7; test: Inhibition of LPS-induced TNFalpha production in mouse RAW264.7 cells at 50 uM preincubated for 2 hrs followed by LPS treatment for 24 hrs by RT-qPCR analysis relative to control; assay type: functional; conditions: time 26 hrs
[18] = system: Mus musculus; test: Anti-ulcerative colitis activity against DSS-induced ulcerative colitis C57BL/6 mouse model assessed as body weight recovery rate at 1 mg/kg, IG via gavage administered for 7 days and measured everyday relative to control; assay type: functional; conditions: time 7 day
[19] = Apparent volume of distribution in 12 hr starved C57 mouse at 30 mg/kg, po measured for 0.083 to 24 hrs post-dose by LC-MS-MS analysis; assay type: ADME, organism-based; conditions: in vivo, time 0.083-24 hrs
[20] = system: Mus musculus; test: Antiinflammatory activity against IL-10-/- C57BL/6 mouse model of ulcerative colitis assessed as inhibition ratio of IL-6 mRNA expression in colon tissue at 1 mg/kg, IG via gavage and measured after 8 weeks by RT-qPCR analysis relative to control; assay type: functional; design: scale not given: the % may be the effect or the level left
[21] = AUC (0 to t) in 12 hr starved C57 mouse at 5 mg/kg, iv measured for 0.083 to 24 hrs post-dose by LC-MS-MS analysis; assay type: ADME, organism-based; design: time lower 0.083 hrs, dose 5 mg/kg, time upper 24 hrs, route iv; conditions: in vivo
[22] = system: Mus musculus; test: Antiinflammatory activity against IL-10-/- C57BL/6 mouse model of ulcerative colitis assessed as inhibition ratio of IL-6 protein expression at 3 mg/kg, IG via gavage and measured after 8 weeks by ELISA relative to control; assay type: functional; design: scale not given: the % may be the effect or the level left
[23] = system: Mus musculus; test: Antiinflammatory activity against IL-10-/- C57BL/6 mouse model of ulcerative colitis assessed as inhibition ratio of IL-6 mRNA expression in colon tissue at 3 mg/kg, IG via gavage and measured after 8 weeks by RT-qPCR analysis relative to control; assay type: functional; design: scale not given: the % may be the effect or the level left
[24] = system: Mus musculus; test: Antiinflammatory activity against DSS-induced C57BL/6 mouse model of acute ulcerative colitis assessed as reduction in serum IL-23 levels administered intragastrically via gavage measured after 7 days by ELISA; assay type: functional, organism-based; conditions: dose 1-10 mg/kg, route ig, time 7.0 day, DDE = dose-dependent effect
[25] = Apparent clearance during terminal phase in 12 hr starved C57 mouse at 30 mg/kg, po measured for 0.083 to 24 hrs post-dose by LC-MS-MS analysis; assay type: ADME, organism-based; conditions: in vivo, time 0.083-24 hrs
[26] = Toxicity in C57 mouse assessed as heart damage at 50 to 500 mg/kg, po administered daily for 14 days; assay type: organism-based; conditions: in vivo, 336 h, dose 50-500 mg/kg, time 14 day

COc1ccc([C@H]2CC(=O)c3cc(OC)cc(OC)c32)cc1
Papp [1]: 23.3 ×10⁻⁶ cm/s | Activity [2]: Non-Toxic | Activity [3]: 48.6% | bioavailability [4]: 33% | inhibition [5]: Dde | inhibition [6]: Dde | Activity [7]: 17.7% | inhibition [8]: Dde | Activity [9]: Active | Activity [10]: 87.2% | Activity [11]: 3.2 | Activity [12]: Dde | Activity [13]: 40.4% | Activity [14]: 69.5% | Activity [15]: 29.4% | Activity [16]: 60.8% | inhibition at 50 µM [17]: 62.3% | Activity [18]: 22.7% | Vz [19]: 3.68 L/kg | Activity [20]: 26.3% | AUC(0-t) [21]: 7250 ng·h/mL | Activity [22]: 44.5% | Activity [23]: 37.1% | Activity [24]: Dde | CLz/F [25]: 4.83 mL/min/kg | Activity [26]: Non-Toxic
